Assay results: patent US20050123477A1, “Benzothiazole derivatives for in vivo imaging of amloid plaques” (priority 2002, published 2005)
Where no end group is shown, it is not given here.

Experiments:
[1] = molecular target: T1, fibrillar Beta-Amyloid Protein (BAP 1-40) (Homo sapiens, UniProt P05067); experiment: Amyloid binding on SPA beads; details: 180 minutes at room temperature, equimolar amounts, non-specific binding subtracted
T1 construct: 25 μl BAP 1-40 (10 mg/ml, Biosource 03-138); purchased Biosource 03-138 (BAP 1-40); 03-243 (biotinylated BAP 1-40)
T1 sequence (P05067 672-711 limits assumed): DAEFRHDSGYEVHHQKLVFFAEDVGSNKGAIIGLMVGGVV
Protocol: The binding of Compound 1 (74 TBq/mmol) was determined compared to the ability of ^125I-beta amyloid protein 1-40 (^125I-BAP 1-40, Amersham Biosciences IM294)) to bind to amyloid 140 fibrils. Amyloid binding was essentially performed as follows.
Three fresh buffer stocks were prepared for experiments: Buffer 1, 50 mM HEPES/0.1 % Bovine Serum Albumin (BSA) pH 7.5; Buffer 2, 50 mM HEPES/0.1% BSA/400 μM ZnCl2 pH 7.5; Buffer 3, 50 mM HEPES/0.1% BSA/100 μM ZnCl2 pH 7.5.
Streptavidin coated scintillation proximity assay beads (SA-SPA beads, Amersham Biosciences) were used to immobilise fibrillar Beta-Amyloid Protein (BAP 1-40). Amyloid coated beads (SPA-BAP) were prepared by incubating 250 μl SA-SPA beads (100 mg/ml) with 250 μl Buffer 2, 425 μl Buffer 1, 50 μl biotinylated BAP 1-40 (0.5 mg/ml, Biosource 03-243), 25 μl BAP 1-40 (10 mg/ml, Biosource 03-138). Non-specific binding SPA beads (SPA-NSB) were prepared to assess the binding of compounds to SPA beads with no associated BAP 1-40 fibrils in the following incubation: 250 μl SA-SPA beads (100 mg/ml) with 250 μL Buffer 2,500 μl Buffer 1.
SPA-BAP and SPA-NSB incubations were left for 24 hours at room temperature and then spun 1.5 ml tubes (eppendorf, Merk, 306/0421/12) for 2 minutes at 1000×g. The supernatants were removed and the beads were washed twice by resuspending them in 1 ml Buffer 3 followed by centrifugation for 2 minutes at 1000×g. Finally, washed SPA-BAP and SPA-NSB beads were resuspended in 1 ml Buffer 3.
Amyloid binding of ^125I-BAP 1-40 and Compound 1 was performed in triplicate in 0.5 ml tubes (eppendorf, Merk, 306/0421/02) by adding 50 μl SPA-BAP beads to 25 μl Buffer 2 and 25 μl labelled compound (^125I-BAP 1-40 or Compound 1). Tubes were then incubated for 180 minutes at room temperature with shaking, followed by centrifugation for 2 minutes at 1000×g. The supernatants were removed and SPA-BAP pellet washed twice with 300 μl Buffer 3 containing 1% TWEEN-20 (Sigma, P7949). Non-specific binding for labelled compounds to the SPA beads was determined using incubations as described above but by substituting SPA-BAP beads with SPA-NSB beads. Radioactivity associated with the washed SPA bead pellets was then determined.
The affinity of labelled compounds for fibrillar BAP 1-40 was estimated by subtracting SPA-NSB associated counts from SPA-BAP associated counts. The binding of labelled compounds was then compared to ^125I-BAP binding, which was taken as being 100%.
In these experiments, ^125-BAP 1-40 or Compound 1 were added in equimolar amounts (between 1-5×10^−11 mmoles per incubation).

[2] = test system: CACO-2 cells; experiment: CACO-2 cell apparent permeability (Papp), BBB model; details: CACO-2 monolayers in Transwells, 30 minutes at 37° C., donor to acceptor
Protocol: Culturing of CACO-2 cells and Determination of Apparent Permeability (Papp) Values:
The seeding of 12 mm Transwells was as follows for CACO-2. Flasks of confluent cultures were trypsinsed and cells were carefully resuspended, making sure there are no clumps or air bubbles. 1.5 ml of tissue culture medium was placed in the bottom (acceptor) chamber of the wells and 0.5 ml containing 2×10^5 cells in the Transwell (donor chamber) and placed in the incubator. The cells were routinely monitored for adequate trans epithelial electrical resistance (TEER) using an EndOhm Tissue resistance measurement chamber (WPI). The subsequent maintenance and feeding of the cells on the Transwells was as follows: when feeding the wells, the medium was removed from the acceptor chamber (basolateral side) and donor chamber (apical side) of the Transwells. The medium was aspirated off with a pipette connected to a vacuum pump, being careful not to touch the filter. 0.5 ml of growth medium was then placed into the donor chamber and 1.5 ml of growth medium was placed into the acceptor chamber.
When the TEER values of the CACO-2 cell monolayers in Transwells was around 500 Ωcm^2 (300-800 Ωcm^2 was considered acceptable) permeability experiments were performed in triplicate as follows. All culture media was removed and acceptor and donor chambers were rinsed twice with Eagles Balance Salt Solution (EBSS) (Gibco) at 37° C. 1.5 ml EBSS was added to the acceptor chamber and 0.5 ml EBSS containing radiolabelled compound was added to the donor chamber. Cultures in Transwells were then incubated for 30 minutes at 37° C. at 200 rpm using a Labnet Vortemp. After 30 minutes, 100 μl aliquot was taken from the donor chamber and 750 μl from the acceptor chamber. These aliquots were then counted for radioactivity. The remaining EBSS was removed from the acceptor and donor chambers and then the Transwell was thoroughly rinsed three times la with EBSS. Next, the Transwell membrane (and associated cells) was removed using a scalpel and the amount of radiolabel associated with it was determined.
Permeability of compounds were determined by calculating their Papp value: Papp=ΔQ/Δt.60.A.Co (cm/sec)

[3] = Brain Uptake Index (BUI) method; type: in vivo; details: for Mean BUI: carotid artery bolus, decapitated after 15 seconds, relative to 14C-Butanol
Protocol: BUI is calculated according to the following equation: [formula] BUI was performed on three animals from the same test solution for each experiment. Each compound was assayed in duplicate.

[4] = Capillary depletion; details: carotid bolus, brain removed ten seconds after injection
Protocol: Compounds that may appear to cross the blood-brain barrier may be sticking to the vasculature within the brain, rather than entering the brain parenchyma. For this reason a capillary depletion method was employed that separates the capillaries from brain homogenate.
Male Wistar rats weighing 150-250 g were deeply anaesthetised by the administration of 55 mg/kg sodium pentabarbital (Rhone-Meriaux) by intra peritoneal injection. The left common carotid artery was exposed by blunt dissection, and 100 μl of test solution injected in a single bolus into the carotid using a 30G needle and 1ml syringe (injection time ˜1 second). The injectate contained both the test/validation compound and ^14C— or ^3H-Sucrose (Amersham Biosciences) as a non-diffusable standard. Ten seconds after injection, the animal was decapitated and the brain removed. […] Pellet, supernatant and a sample of injection solution were counted on a Rackbeta Excel scintillation counter, after the addition of 10 ml Hionic Fluor scintillant (Packard). ^14C/^3H-Sucrose served to correct for vascular volume of vessels contained in the pellet, and also activity that had leaked from the vasculature into the supernatant during the homogenisation procedure.
Volumes of distribution for pellet and supernatant were calculated as shown below. Data is expressed as ratio of volume of distribution in the supernatant to pellet. […]

[5] = Pharmacokinetics / biodistribution; type: in vivo, normal male wistar rats; details: for percentage injected dose, Blood / percentage injected dose, Brain / percentage injected dose, Fat / percentage injected dose, Kidney / percentage injected dose, LI (large intestines) / percentage injected dose, Muscle / percentage injected dose, SI (small intestines) / percentage injected dose, Skin / percentage injected dose, Spleen / percentage injected dose, Stomach / percentage injected dose, inj site / percentage injected dose, liver / percentage injected dose, lung / percentage injected dose, thyroid / percentage injected dose, urine: tail vein
Protocol: Compound 1 IMQ1961 prepared by Amersham Biosciences 250 μCi/ml (specific activity 2000Ci/mmol) freshly diluted to give 1 μCi/0.1 ml volume injection bolus. 15 normal male wistar rats 150-180 g (Charles River).
Male wistar rats were anaethetised briefly prior to injection with Compound 1 (1 μCi, 0.1 ml bolus tail vein). Biodistributions were performed at five time points (5, 15, 30, 60 and 120 mins) in triplicate animals in which tissues from brain, blood, muscle, kidney, spleen, stomach, small intestines, large intestines and faeces, bladder and urine, fat, skin and thyroid were dissected and counted for distribution of the compound in the body in a Wallac Wizzard gamma counter.
Percentage injected dose calculations were made and plotted using the Qk pharmacokinetics program to determine t½ α, and volume of distribution (VD). Relative retention (RR) and Brain:tissue ratios were calculated as follows; [formula] [formula] Results and Discussion

[6] = In situ brain perfusion; type: in vivo; design: unit not given here; details: unidirectional brain influx constant, perfusion 2-30 minutes
[7] = LogP and delta LogP; type: physicochemical

^125I-KKLVFFA (BAP 15-21): ^125I-labelled BAP 15-21 sequence (Amersham Biosciences) (not fully specified (N-terminus); also: 125I label, site not given here)
Amyloid binding (% of 125I-BAP 1-40) [1]: 21%

^99mTc-Pn216-KKLVFF (BAP 15-20): ^99mTc-labelled BAP sequence responsible for the binding of BAP to itself
Amyloid binding (% of 125I-BAP 1-40) [1]: 9%

CN1C(=O)CN=C(c2ccccc2)c2cc(Cl)ccc21 [^14C-diazapam, ^14C-diazepam]
Papp [2]: 244 nm/s

^14C-FDG [reference compound]
Mean BUI [3]: 17.98

^125I-BAP 1-40: ^125I-beta amyloid protein 1-40, Amersham Biosciences IM294; reference taken as 100% binding
Amyloid binding (% of 125I-BAP 1-40) [1]: 100%

Cc1cc(-c2nc3cc([125I])ccc3s2)ccc1N [Compound 1, 5-[^125I]-iodo-2-(4′-amino-3′-methylphenyl)benzothiazole]
Ratio of VD supernatant/pellet [4]: 7.2 | t½ (α) of clearance from brain ([5]; 1 μCi tail vein bolus): 12.4 min | relative retention, blood ([5]; 5 minutes): 1.04 | relative retention, brain ([5]; 5 minutes): 1.01 | thyroid uptake ([5]; over two hour experiment, indicates in vivo stability to deiodination): < 1% | Clearance through the body ([5]; rat, in vivo): largely via the hepatobiliary system | percentage injected dose, Blood ([5]; 5 min): 6.05 % ID | percentage injected dose, Brain ([5]; 5 min): 0.94 % ID | percentage injected dose, Fat ([5]; 5 min): 30.82 % ID | percentage injected dose, Kidney ([5]; 5 min): 3.14 % ID | percentage injected dose, LI (large intestines) ([5]; 5 min): 1.53 % ID | percentage injected dose, Muscle ([5]; 5 min): 21.49 % ID | percentage injected dose, SI (small intestines) ([5]; 5 min): 9.04 % ID | percentage injected dose, Skin ([5]; 5 min): 8.92 % ID | percentage injected dose, Spleen ([5]; 5 min): 0.69 % ID | percentage injected dose, Stomach ([5]; 5 min): 1.82 % ID | percentage injected dose, inj site ([5]; 5 min): 2.12 % ID | percentage injected dose, liver ([5]; 5 min): 19.47 % ID | percentage injected dose, lung ([5]; 5 min): 1.40 % ID | percentage injected dose, thyroid ([5]; 5 min): 0.16 % ID | percentage injected dose, urine ([5]; 5 min): 0.04 % ID | percentage injected dose, Blood ([5]; 15 min): 4.14 % ID | percentage injected dose, Brain ([5]; 15 min): 0.75 % ID | percentage injected dose, Fat ([5]; 15 min): 36.31 % ID | percentage injected dose, Kidney ([5]; 15 min): 1.60 % ID | percentage injected dose, LI (large intestines) ([5]; 15 min): 1.77 % ID | percentage injected dose, Muscle ([5]; 15 min): 19.83 % ID | percentage injected dose, SI (small intestines) ([5]; 15 min): 12.60 % ID | percentage injected dose, Skin ([5]; 15 min): 12.80 % ID | percentage injected dose, Spleen ([5]; 15 min): 0.32 % ID | percentage injected dose, Stomach ([5]; 15 min): 2.56 % ID | percentage injected dose, inj site ([5]; 15 min): 1.86 % ID | percentage injected dose, liver ([5]; 15 min): 7.48 % ID | percentage injected dose, lung ([5]; 15 min): 0.49 % ID | percentage injected dose, thyroid ([5]; 15 min): 0.16 % ID | percentage injected dose, urine ([5]; 15 min): 2.10 % ID | percentage injected dose, Blood ([5]; 30 min): 3.58 % ID | percentage injected dose, Brain ([5]; 30 min): 0.49 % ID | percentage injected dose, Fat ([5]; 30 min): 59.02 % ID | percentage injected dose, Kidney ([5]; 30 min): 0.95 % ID | percentage injected dose, LI (large intestines) ([5]; 30 min): 1.90 % ID | percentage injected dose, Muscle ([5]; 30 min): 12.59 % ID | percentage injected dose, SI (small intestines) ([5]; 30 min): 21.93 % ID | percentage injected dose, Skin ([5]; 30 min): 16.90 % ID | percentage injected dose, Spleen ([5]; 30 min): 0.19 % ID | percentage injected dose, Stomach ([5]; 30 min): 6.66 % ID | percentage injected dose, inj site ([5]; 30 min): 3.05 % ID | percentage injected dose, liver ([5]; 30 min): 4.46 % ID | percentage injected dose, lung ([5]; 30 min): 0.48 % ID | percentage injected dose, thyroid ([5]; 30 min): 0.39 % ID | percentage injected dose, urine ([5]; 30 min): 1.63 % ID | percentage injected dose, Blood ([5]; 60 min): 2.77 % ID | percentage injected dose, Brain ([5]; 60 min): 0.29 % ID | percentage injected dose, Fat ([5]; 60 min): 73.92 % ID | percentage injected dose, Kidney ([5]; 60 min): 0.63 % ID | percentage injected dose, LI (large intestines) ([5]; 60 min): 7.75 % ID | percentage injected dose, Muscle ([5]; 60 min): 7.79 % ID | percentage injected dose, SI (small intestines) ([5]; 60 min): 28.42 % ID | percentage injected dose, Skin ([5]; 60 min): 17.14 % ID | percentage injected dose, Spleen ([5]; 60 min): 0.15 % ID | percentage injected dose, Stomach ([5]; 60 min): 8.98 % ID | percentage injected dose, inj site ([5]; 60 min): 1.83 % ID | percentage injected dose, liver ([5]; 60 min): 3.12 % ID | percentage injected dose, lung ([5]; 60 min): 0.34 % ID | percentage injected dose, thyroid ([5]; 60 min): 0.17 % ID | percentage injected dose, urine ([5]; 60 min): 8.39 % ID | percentage injected dose, Blood ([5]; 120 min): 2.27 % ID | percentage injected dose, Brain ([5]; 120 min): 0.18 % ID | percentage injected dose, Fat ([5]; 120 min): 55.62 % ID | percentage injected dose, Kidney ([5]; 120 min): 0.45 % ID | percentage injected dose, LI (large intestines) ([5]; 120 min): 3.12 % ID | percentage injected dose, Muscle ([5]; 120 min): 5.60 % ID | percentage injected dose, SI (small intestines) ([5]; 120 min): 26.86 % ID | percentage injected dose, Skin ([5]; 120 min): 12.89 % ID | percentage injected dose, Spleen ([5]; 120 min): 0.08 % ID | percentage injected dose, Stomach ([5]; 120 min): 9.29 % ID | percentage injected dose, inj site ([5]; 120 min): 2.62 % ID | percentage injected dose, liver ([5]; 120 min): 2.39 % ID | percentage injected dose, lung ([5]; 120 min): 0.23 % ID | percentage injected dose, thyroid ([5]; 120 min): 0.95 % ID | percentage injected dose, urine ([5]; 120 min): 10.02 % ID | Mean BUI [3]: 43.6 | BBB penetration (from BUI) ([3]; cut off low/medium 20%): medium to high BBB penetration | Amyloid binding (% of 125I-BAP 1-40) [1]: 27% | Kin [6]: 49.8 | Papp [2]: 137 nm/s | LogP [7]: 1.75 | ΔLogP [7]: −0.38

OCC(O)C(O)C(O)C(O)[14CH2]O (centres unmarked) [^14C-mannitol]
Papp [2]: 36.3 nm/s

O=C[C@H](O)[C@@H](O)[C@H](O)[C@H](O)CO [^14C-Glucose, ^14C-glucose]
Papp [2]: 579 nm/s
